From patent publication US7777035B2, “Azaindazole compounds and methods of use” (Chemocentryx, Inc., priority 2005, dated 2010)

target: T1, CCR1 (Homo sapiens, UniProt P32246); test: CCR1 chemotaxis assay or binding assay (activity given for either); details: either the chemotaxis assay or binding assay; CCR1 expressing cells (THP-1 or human monocytes); read-out: Activity (IC50 class)
T1 construct: host or cells: THP-1 cells or monocytes isolated from human buffy coats
T1 sequence (P32246 1-355): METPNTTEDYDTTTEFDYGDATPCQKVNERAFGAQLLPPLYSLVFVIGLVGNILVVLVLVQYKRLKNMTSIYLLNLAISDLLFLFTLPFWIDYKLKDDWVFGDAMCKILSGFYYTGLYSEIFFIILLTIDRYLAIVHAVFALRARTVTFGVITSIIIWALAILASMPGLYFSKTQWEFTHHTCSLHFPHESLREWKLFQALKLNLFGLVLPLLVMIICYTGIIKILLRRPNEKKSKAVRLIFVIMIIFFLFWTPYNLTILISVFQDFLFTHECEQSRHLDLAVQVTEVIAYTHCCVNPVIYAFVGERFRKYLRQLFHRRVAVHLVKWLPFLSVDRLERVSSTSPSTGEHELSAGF
Protocol: Cells were grown under 5% CO2/95% air, 100% humidity at 37° C. and subcultured twice weekly at 1:5 (cells were cultured at a density range of 2×10^5 to 2×10^6 cells/mL) and harvested at 1×10^6 cells/mL. THP-1 cells express CCR1 and can be used in CCR1 binding and functional assays.
Monocytes were isolated from human buffy coats using the Miltenyi bead isolation system (Miltenyi, Auburn, Calif.). Briefly, following a Ficoll gradient separation to isolate peripheral blood mononuclear cells, cells were washed with PBS and the red blood cells lysed using standard procedures. Remaining cells were labeled with anti-CD14 antibodies coupled to magnetic beads (Miltenyi Biotech, Auburn, Calif.). Labeled cells were passed through AutoMACS (Miltenyi, Auburn, Calif.) and positive fraction collected. Monocytes express CCR1 and can be used in CCR1 binding and functional assays.
CCR1 expressing cells were centrifuged and resuspended in assay buffer (20 Mm HEPES pH 7.1, 140 Mm NaCl, 1 Mm CaCl2, 5 Mm MgCl2, and with 0.2% bovine serum albumin) to a concentration of 5×10^6 cells/mL for THP-1 cells and 5×10^5 for monocytes. Binding assays were set up as follows. […] Reactions were aspirated onto GF/B glass filters pre-soaked in 0.3% polyethyleneimine (PEI) solution, on a vacuum cell harvester (Packard Instruments; Meriden, Conn.). Scintillation fluid (40 μl; Microscint 20, Packard Instruments) was added to each well, the plates were sealed and radioactivity measured in a Topcount scintillation counter (Packard Instruments). Control wells containing either diluent only (for total counts) or excess MIP-1α or MIP-1β (1 μg/mL, for non-specific binding) were used to calculate the percent of total inhibition for compound. The computer program Prism from GraphPad, Inc. (San Diego, Calif.) was used to calculate IC50 values.
Chemotaxis assays were performed using 5 ┌ m pore polycarbonate, polyvinylpyrrolidone-coated filters in 96-well chemotaxis chambers (Neuroprobe; Gaithersburg, Md.) using chemotaxis buffer (Hank's balanced salt solution (HBSS) and 1% FBS). CCR1 chemokine ligands (i.e., MIP-1α, CCL15/Leukotactin; R&D Systems; Minneapolis, Minn.) are use to evaluate compound mediated inhibition of CCR1 Mediated migration. Other chemokines (i.e., SDF-1α; R&D Systems; Minneapolis, Minn.) are used as specificity controls. […] The chambers were incubated 1-2 hours at 37° C., and the number of cells in the lower chamber quantified either by direct cell counts in five high powered fields per well or by the CyQuant assay (Molecular Probes), a fluorescent dye method that measures nucleic acid content and microscopic observation.
THP-1 cells and monocytes lack other chemokine receptors that bind the same set of chemokine ligands as CCR1 (i.e., MIP-1α, MPIF-1, Leukotactin, etc.). Equal numbers of cells were added to each well in the plate. The cells were then incubated with radiolabeled MIP-1α. Unbound ligand was removed by washing the cells, and bound ligand was determined by quantifying radioactive counts. […] Percent inhibition was determined by the equation: […]
In the assay, the amount of compound was varied; while cell number and ligand concentration were held constant.
One of the primary functions of chemokines is their ability to mediate the migration of chemokine receptor-expressing cells, such as white blood cells. […] THP-1 Myelomonocytic leukemia cells, which resemble monocytes, as wells as freshly isolated monocytes, were used as targets for chemoattraction by CCR1 chemokine ligands (i.e., MIP-1α, CCL15/leukotactin). […] In this assay, the amount of compound was varied; while cell number and chemokine agonist concentrations were held constant. After the chemotaxis chambers were incubated 1-2 hours at 37° C., the responding cells in the lower chamber were quantified by labeling with the CyQuant assay (Molecular Probes), a fluorescent dye method that measures nucleic acid content, and by measuring with a Spectrafluor Plus (Tecan).

Row | Structure (SMILES) | IC50
1 | COc1cc(N2CCN(C(=O)Cn3nc(CN)c4cccnc43)CC2)ccc1Cl [Compound 1.062] | 1000 to 2500 nM
2 | COc1cc(N2CCN(C(=O)Cn3nc(-c4ncc[nH]4)c4cccnc43)C[C@H]2C)ccc1Cl [Compound 1.071] | < 1000 nM
3 | COc1cc(N2CCN(C(=O)Cn3nc(-c4ncc[nH]4)c4cccnc43)C[C@@H]2C)ccc1Cl [Compound 1.072] | < 1000 nM
4 | COc1cc(N2CCN(C(=O)Cn3nc(-c4ncc[nH]4)c4cccnc43)[C@H](C)C2)ccc1Cl [Compound 1.073] | < 1000 nM
5 | CCOc1cc(N2CCN(C(=O)Cn3nc(-c4ncc[nH]4)c4cccnc43)[C@@H](C)C2)ccc1Cl [Compound 1.074] | < 1000 nM
6 | O=C(Cn1nc(-c2ncc[nH]2)c2cccnc21)N1CCN(c2ccc(Cl)c(OCCF)c2)CC1 [Compound 1.075] | < 1000 nM
7 | C[C@H]1CN(c2ccc(Cl)c(OCCF)c2)CCN1C(=O)Cn1nc(-c2ncc[nH]2)c2cccnc21 [Compound 1.076] | < 1000 nM
8 | Cc1cc(N2CCN(C(=O)Cn3nc(-c4ncc[nH]4)c4cccnc43)CC2)ccc1Cl [Compound 1.077] | < 1000 nM
9 | O=C(Cn1nc(-c2ncc[nH]2)c2cccnc21)N1CCN(c2ccc(Cl)c(C(F)(F)F)c2)CC1 [Compound 1.078] | 2500 to 12500 nM
10 | O=C(Cn1nc(-c2ncc[nH]2)c2cccnc21)N1CCN(c2ccc(Cl)c(OC(F)(F)F)c2)CC1 [Compound 1.079] | < 1000 nM
11 | COc1cc(N2CCN(C(=O)Cn3nc(-c4ncc[nH]4)c4cccnc43)CC2)ccc1Cl [Compound 1.080] | < 1000 nM
12 | COc1cc(N2CCN(C(=O)Cn3nc(-c4nccn4C)c4cccnc43)CC2)ccc1Cl [Compound 1.081] | < 1000 nM

Continued, values first:

Row | IC50 | Structure (SMILES)
13 | < 1000 nM | COc1cc(N2CCN(C(=O)Cn3ncc4ccc(NC(C)=O)nc43)CC2)ccc1Cl [Compound 1.060]
14 | < 1000 nM | COc1cc(N2CCN(C(=O)Cn3nc(S(C)(=O)=O)c4cccnc43)CC2)ccc1Cl [Compound 1.061]
15 | < 1000 nM | COc1cc(N2CCN(C(=O)Cn3nc(I)c4cccnc43)CC2)ccc1Cl [Compound 1.063]
16 | < 1000 nM | COc1cc(N2CCN(C(=O)Cn3nc(I)c4cccnc43)[C@@H](C)C2)c(F)cc1Cl [Compound 1.064]
17 | < 1000 nM | CCOc1cc(N2CCN(C(=O)Cn3nc(-c4ncc[nH]4)c4cccnc43)CC2)c(F)cc1Cl [Compound 1.065]
18 | < 1000 nM | O=C(Cn1nc(-c2ncc[nH]2)c2cccnc21)N1CCN(c2cc(OCCF)c(Cl)cc2F)CC1 [Compound 1.066]
19 | < 1000 nM | CCOc1cc(N2CCN(C(=O)Cn3nc(-c4ncc[nH]4)c4cccnc43)CC2)ccc1Cl [Compound 1.067]
20 | < 1000 nM | COc1cc(N2CCN(C(=O)Cn3nc(-c4ncc[nH]4)c4cccnc43)CC2)c(F)cc1Cl [Compound 1.068]
21 | < 1000 nM | COc1cc(N2CCN(C(=O)Cn3nc(-c4ncc[nH]4)c4cccnc43)[C@@H](C)C2)ccc1Cl [Compound 1.069]
22 | < 1000 nM | COc1cc(N2CCN(C(=O)Cn3nc(-c4ncc[nH]4)c4cccnc43)[C@@H](C)C2)c(F)cc1Cl [Compound 1.070]
